# Source: patent EP0423419B1, “Inhibitive agent against activity of alpha-amylase” (MITSUI NORIN CO., LTD., priority 1989, dated 1991)
# pIC50: −log10 of the molar value.
# Molecular target: T1, α-amylase prepared from human saliva (Homo sapiens, UniProt P0DUB6)
# T1 construct: α-amylase prepared from human saliva; purchased Sigma Co; host or cells: human saliva
# T1 sequence (P0DUB6 16-511): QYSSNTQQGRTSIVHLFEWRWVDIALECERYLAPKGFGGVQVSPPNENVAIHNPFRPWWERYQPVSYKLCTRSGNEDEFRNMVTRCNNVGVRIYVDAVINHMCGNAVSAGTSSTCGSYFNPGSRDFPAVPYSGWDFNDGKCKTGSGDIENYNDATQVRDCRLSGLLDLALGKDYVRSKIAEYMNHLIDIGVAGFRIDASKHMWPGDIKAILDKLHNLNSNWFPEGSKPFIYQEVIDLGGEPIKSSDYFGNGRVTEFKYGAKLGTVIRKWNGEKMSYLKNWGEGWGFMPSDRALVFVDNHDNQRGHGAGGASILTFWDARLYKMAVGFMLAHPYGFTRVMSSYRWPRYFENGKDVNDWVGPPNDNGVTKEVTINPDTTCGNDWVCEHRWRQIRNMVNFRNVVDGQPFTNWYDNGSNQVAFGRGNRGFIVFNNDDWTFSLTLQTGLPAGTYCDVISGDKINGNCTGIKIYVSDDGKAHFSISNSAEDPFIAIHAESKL
# Test: Inhibition of the activity of α-amylase (reducing sugar from soluble starch, Bernfeld method)
# Assay type: biochemical
# Conditions: not given
row,SMILES,pIC50
1,"O=C(O)c1cc(O)c(O)c(O)c1 [Gallic acid, reference compound]",< 3.00

# Same assay, conditions: human saliva α-amylase, 10 min preincubation at 37°C, soluble starch 2.0 mg/ml; read-out: Concentration for 50% inhibition
row,SMILES,pIC50
1,"Oc1cc(O)c2c(c1)O[C@H](c1cc(O)c(O)c(O)c1)[C@H](O)C2 [Epicagallcatechin, (-)epigallocatechin]",< 3.00
2,"O=C(O[C@@H]1Cc2c(O)cc(O)cc2O[C@@H]1c1ccc(O)c(O)c1)c1cc(O)c(O)c(O)c1 [Epicatechin gallate, (-)epicatechin gallate]",3.89
3,"O=C(O[C@@H]1Cc2c(O)cc(O)cc2O[C@@H]1c1cc(O)c(O)c(O)c1)c1cc(O)c(O)c(O)c1 [Epigallocatechin gallate, (-)epigallocatechin gallate]",3.59

# Continued, values first:
row,pIC50,SMILES
1,< 3.00,"Oc1cc(O)c2c(c1)O[C@H](c1ccc(O)c(O)c1)[C@H](O)C2 [Epicatechin, (-)epicatechin]"
2,4.74,"O=c1c(O)cc([C@H]2Oc3cc(O)cc(O)c3C[C@H]2O)cc2c([C@H]3Oc4cc(O)cc(O)c4C[C@H]3O)cc(O)c(O)c12 [Free theaflavin, free theaflavin]"
3,6.00,"O=C(O[C@@H]1Cc2c(O)cc(O)cc2O[C@@H]1c1cc(O)c(=O)c2c(O)c(O)cc([C@H]3Oc4cc(O)cc(O)c4C[C@H]3O)c2c1)c1cc(O)c(O)c(O)c1 [Theaflavin monogallate A, theaflavin monogallate A]"
4,5.77,"O=C(O[C@@H]1Cc2c(O)cc(O)cc2O[C@@H]1c1cc(O)c(O)c2c(=O)c(O)cc([C@H]3Oc4cc(O)cc(O)c4C[C@H]3O)cc12)c1cc(O)c(O)c(O)c1 [Theaflavin monogallate B, theaflavin monogallate B]"

# Test system: not listed separately
# Test: Acute toxicity in mice (LD50)
# Conditions: mouse, in vivo, ip; intraperitoneal administration, ICR mice, Van der Waerden method; read-out: LD₅₀
# Description: An animal test was conducted by using ICR mice as the test animals to examine the acute toxicity of the inventive inhibitive agent against the activity of α-amylase. The values of LD₅₀ calculated according to the Van der Waerdrn method within the confidence limit were: 2412 mg/kg in the oral administration of the same crude mixture of catechin compounds as used in Example 2; 55.2 mg/kg in the intraperitoneal administration of a crude mixture of theaflavin compounds of the composition shown in Table 5 below; and 150 mg/kg in the intraperitoneal administration of epigallocatechin gallate.
row,SMILES,LD50 [mg/kg]
1,"O=C(O[C@@H]1Cc2c(O)cc(O)cc2O[C@@H]1c1cc(O)c(O)c(O)c1)c1cc(O)c(O)c(O)c1 [Epigallocatechin gallate, (-)epigallocatechin gallate]",150
